Data from US20090023186A1, “USE OF VALPROIC ACID FOR ENHANCING PRODUCTION OF RECOMBINANT PROTEINS IN MAMMALIAN CELLS” (EXCELLGENE SA, priority 2007, published 2009).

Test system: HEK293E cells
Experiment: Transient IgG expression, batch titer by ELISA, VPA concentration series (Example 1)
Assay type: cell-based, Human
Conditions: for Fold increase over control / Batch titer: IgG, day 5 after transfection; for Batch titer: 37° C.
Description: 10 million suspension-adapted HEK293E cells were resuspended in 0.5 ml of Ex-Cell 293 HEK 293 serum-free medium with 4 mmol/l L-glutamine (Cat. No. 14571C-1000 M; Lot No. 6A0093; SAFC Biosciences, Lenexa, Kans., USA, “Ex-Cell” medium; note: “Ex-Cell” medium-as used herein-refers to a medium comprising 4 mmol/l L-glutamine) in a 50-ml filter tube each (TPP AG, Trasadingen, Switzerland; Cat. No. 87050, Lot 20050174). In a separate set, 10 million suspension-adapted CHO DG44 cells were resuspended in 0.5 ml of ProCHO5 serum-free medium with 4 mmol/[…] hypoxanthine and 0.194 g/l thymidine (BioWhittaker (Lonza), Belgium; Cat. No. BE12-[…]; Lot No. 7 MB0040; “ProCHO5” medium; note: “ProCHO5” medium-as used herein-refers to a medium comprising 4 mmol/[…] hypoxanthine and 0.194 g/l thymidine) in a 50-ml filter tube each (TPP AG, Trasadingen, Switzerland; Cat. No. 87050, Lot 20050174). Then 12.5 μg plasmid DNA at a concentration of 1 μg/μl was added in each tube with the following composition 50% (6.25 μg) p-LC (SEQ ID NO: 1) 50% (6.25 μg) p-HC (SEQ ID NO: 3). Plasmid p-LC comprises the genetic information for the production of the light chain of an IgG antibody, plasmid p-HC comprises the genetic information for the production of the heavy chain of an IgG antibody. The particular vector constructs used in the present invention can also be obtained from the inventors. The inventors can be contacted via e-mail at […]. Moreover, commercial services do exist that produce any desired nucleotide sequence even comprising several kilobase pairs including complete expression cassettes in plasmid backgrounds (e.g., Invitrogen, Carlsbad, USA; Geneart, Germany.) Thus, providing the genetic sequence information of the plasmids should enable one of ordinary skill in the art to order the plasmids of the present invention at one of the commercial services listed. After shortly mixing the DNA with the cells by gentle shaking, 25 μg of 25-kd linear polyethyleneimine (“PEI”; Polysciences, Eppelheim, Germany; [2]) were added at a concentration of 1 μg/μl to each of the tubes. After shortly mixing by gentle shaking, the filter tubes containing the cells together with the DNA and PEI were transferred into an orbital shaker (Kühner Shaker Cabinet ISF-4-W, “Kühner shaker”, Kühner AG, Birsfelden, Switzerland), and the cells were incubated for 4 hours at 37° C. in a 5% CO2 atmosphere under shaking at 180 rpm. After that time, 4.5 ml of Ex-Cell medium were added to each of the filter tubes containing HEK 293 cells and 4.5 ml of Pro-CHO5 were added to each of the filter tubes containing CHO DG44 cells. Then, valproic acid was added to each of the tubes at the corresponding final concentration. The cells then were returned into the Kühner shaker and incubated at 37° C. in a 5% CO2 atmosphere under shaking at 180 rpm. […] The ELISA was performed as published in prior art. In short, Goat anti-human kappa light chain IgG (Biosource) was used for coating the ELISA-plates, and with AP-conjugated goat anti-human gamma chain IgG (Biosource) the synthesized IgG1 was detected. NPP was used as a substrate for the alkaline phosphatase. Absorption was measured at 405 nm against 490 nm using a microplate reader (SPECTRAmaxTM340; Molecular Devices, Palo Alto, Calif., USA).

Compound: CCCC(CCC)C(=O)O [VPA, valproic acid]
- Fold increase over control (1.3 mmol/l final VPA): 2.2 fold
- Batch titer (1.3 mmol/l final VPA): 33.0 ± 4.3 mg/L
- Fold increase over control (2.5 mmol/l final VPA): 4.1 fold
- Batch titer (2.5 mmol/l final VPA): 61.8 ± 5.7 mg/L
- Fold increase over control (4 mmol/l final VPA): 5.3 fold
- Batch titer (4 mmol/l final VPA): 79.5 ± 3.6 mg/L
- Fold increase over control (5 mmol/l final VPA): 4.3 fold
- Batch titer (5 mmol/l final VPA): 64.5 ± 6.5 mg/L
- Fold increase over control (7.5 mmol/l final VPA): 1.8 fold
- Batch titer (7.5 mmol/l final VPA): 27.0 ± 3.1 mg/L
- Fold increase over control (11.3 mmol/l final VPA): 0.9 fold
- Batch titer (11.3 mmol/l final VPA): 13.5 ± 2.1 mg/L
- optimal final concentration (for batch titer, HEK293E cells, day 5): around 4 mmol/l
